Patent US7060405B2, “Naphthoquinone derivative and electrophotographic photoreceptor containing the same” (Samsung Electronics Co., Ltd., priority 2003, dated 2006)

Assay: solubility in an organic solvent
Type: physicochemical
Settings: compared to a conventional electron-transporting material
Protocol: In addition, two properties of the naphthoquinone derivative of Formula 2 that was used in Example 1 was measured: solubility in an organic solvent and compatibility with a binder resin.

solubility in an organic solvent: improved
SMILES: COc1ccc(C(=O)C2=C(c3ccccc3)C(=O)c3ccccc3C2=O)cc1 [Formula 2]
